Data as given in patent US4308276A, “Inhibiting lipogenesis with benzoxathiincarboxamides” (Shell Oil Company, priority 1978, dated 1981).

Test system: swine adipose tissue
Assay: Inhibition of lipogenesis (uptake of radioactive carbon from glucose-U^14 C into lipid) in swine adipose tissue slices
Type: cell-based
Conditions: 100 micrograms per milliliter, 37° C., 2 hours, 5% DMSO, with insulin, triplicate
Excerpt: The manner in which they cause this effect is not known with certainty; it is believed that they interfere with the synthesis of fatty acids in the tissues. Their effectiveness for this purpose has been ascertained by immersing samples of swine adipose tissue in a liquid medium containing radioactive glucose and the test chemical for a period of time, then isolating the lipid from the treated tissue and determining the up-take of the radioactive carbon by means of scintillation counting techniques. These tests were conducted in swine adipose tissue because in swine, the primary site of lipogenesis--i.e., fatty acid synthesis--appears to be adipose tissue.
Described in more detail, the tests were conducted according to the following general procedure.
150 milligrams of slices of swine adipose tissue were incubated at 37° C. for 2 hours with shaking in 3 milliliters of Krebs-Ringer bicarbonate solution containing one-half the normal calcium ion concentration, 60 micromoles of glucose, 0.5 micro-Curie of glucose-U^14 C, and 300 microunits of insulin, and 5% dimethyl sulfoxide (DMSO). The test compounds were added as a solution or suspension in DMSO and were present at a concentration of 100 micrograms per milliliter of the incubation mixture.
The incubation was terminated by addition of 0.25 milliliter of 1 N sulfuric acid. The resulting mixture was extracted with a total of 25 milliliters of chloroform:methanol (2:1, v/v). The extracts were washed according to Folch et al. (J. Biol. Chem., 226, 497-509, (1957)), air dried, and counted in a liquid scintillation counter with 15 milliliters of counting fluid (two parts toluene containing 0.4% w/v New England Nuclear Omnifluor: 1 part Triton X-100). The tests were conducted in triplicate and were accompanied by control tests in which all ingredients,proportions and conditions were the same except that no test compound was included. From the data obtained were calculated the percent inhibition of lipid synthesis by the test compound in each case. The data obtained from the tests are set out in Table 1, as the percent inhibition of lipogenesis compared to the results obtained in the control tests wherein only the test compound was omitted.

Compound	Percent Inhibition (of lipogenesis compared to control tests)
C=CCNC(=O)C1CSc2ccccc2O1 (centres unmarked) [Compound 1, 2,3-Dihydro-N-(2-propenyl)-1,4-benzoxathiin-2-carboxamide]	63%
C=CCNC(=O)C1CSc2cc(C)ccc2O1 (centres unmarked) [Compound 2, 2,3-Dihydro-6-methyl-N-(2-propenyl)-1,4-benzoxathiin-2-carboxamide]	63%
C=CCNC(=O)C1CSc2cc(Cl)ccc2O1 (centres unmarked) [Compound 3, 6-Chloro-2,3-dihydro-N-(2-propenyl)-1,4-benzoxathiin-2-carboxamide]	54%
C=CCNC(=O)C1CSc2cc(C(F)(F)F)ccc2O1 (centres unmarked) [Compound 4, 6-(Trifluoromethyl)-2,3-dihydro-N-(2-propenyl)-1,4-benzoxathiin-2-carboxamide]	30%
C=CCNC(=O)C1CSc2cc([N+](=O)[O-])ccc2O1 (centres unmarked) [Compound 5, 6-Nitro-2,3-dihydro-N-(2-propenyl)-1,4-benzoxathiin-2-carboxamide]	45%
C=CCNC(=O)C1CSc2cc(N)ccc2O1 (centres unmarked) [Compound 6, 6-Amino-2,3-dihydro-N-(2-propenyl)-1,4-benzoxathiin-2-carboxamide]	29%
C=CCNC(=O)C1CSc2cc(NS(C)(=O)=O)ccc2O1 (centres unmarked) [Compound 7, 6-Methylsulfonamido-3,4-dihydro-N-(2-propenyl)-1,4-benzoxathiin-2-carboxamide]	46%
C=CCNC(=O)C1CSc2ccc(C)cc2O1 (centres unmarked) [Compound 8, 2,3-Dihydro-7-methyl-N-(2-propenyl)-1,4-benzoxathiin-2-carboxamide]	26%
